For 32 compounds, IC50 results are on record in US10383859B2, “Benzo[d]thiazole derivative or salt thereof, and pharmaceutical composition including same” (Yuhan Corporation, priority 2016, dated 2019).

In one experiment the test system is A549 cells. The experiment is described as follows: Cell migration assay (24-well transwell, laminin). It counts as cell-based, human. As to conditions: Homo sapiens, A549, 6 h, laminin 10 μg/mL in lower well, test compounds 0.39˜100 μM, migrated cells counted, read-out: Inhibitory activity against cell migration. On the procedure: Cell migration was measured with a 24-well transwell having a polycarbonate membrane (8.0 μm pore size, Costar) at the bottom of the upper chamber. Each lower well was treated with laminin (10 μg/mL) and test compounds in predetermined concentrations (0.39˜100 μM) along with a serum-free RPMI1640 medium. A549 cells (Korean Cell Line Bank) were suspended in a serum-free RPMI1640 medium at a concentration of 1×10^6 cells/mL and then the test compounds were added thereto at the indicated concentrations. Each resulting solution (100 μL) was added to the upper chamber. The cells were cultured at 37° C. for 6 hours in a CO2 incubator. The upper chamber was taken out and then the cells were fixed with PBS containing 70% methyl alcohol for 10 minutes, followed by washing with PBS twice. The cells were stained with hematoxylin (Sigma) for 10 minutes and then washed with distilled water. The non-migrated cells were removed from the upper portion of the polycarbonate membrane with a cotton swab. The membranes were excised and separated from the chamber, and then mounted to a slide using a gel mount reagent (Biomeda, USA). The migrated cells (attached to the lower face of the membrane) were counted at three randomly selected sites under a microscope (×20). The cell counting was performed with the Image J program. From the counted cell numbers, each IC50 value was calculated by non-linear regression curve fit using the “GraphPad Prism” program.
The cells are pulled by laminin residing in the lower chamber and then passed through the polycarbonate membrane, so as to attach to the lower face of the membrane.
In the case of `O=C(O)c1ccc(CN(CCc2cc(F)ccc2F)c2nc3cccc(F)c3s2)cc1` [Example 35, 4-({[2-(2,5-difluorophenyl)ethyl](7-fluorobenzo[d]thiazol-2-yl)amino}methyl)benzoic acid], the IC50 was > 10 µM.

For the compound `O=C(O)c1ccc(CN(CCc2cc(F)c(F)c(F)c2)c2nc3cccc(F)c3s2)cc1` [Example 36, 4-({(7-fluorobenzo[d]thiazol-2-yl)[2-(3,4,5-trifluorophenyl)ethyl]amino}methyl)benzoic acid], the IC50 is > 10 µM.

On to `COc1ccc(CCN(Cc2ccc(C(=O)O)cc2)c2nc3cccc(F)c3s2)cc1Br` [Example 37, 4-({[2-(3-bromo-4-methoxyphenyl)ethyl](7-fluorobenzo[d]thiazol-2-yl)amino}methyl)benzoic acid], for which the IC50 was > 10 µM.

As for `O=C(O)c1ccc(CN(CCc2ccc(Cl)cc2Cl)c2nc3cccc(F)c3s2)cc1` [Example 38, 4-({[2-(2,4-dichlorophenyl)ethyl](7-fluorobenzo[d]thiazol-2-yl)amino}methyl)benzoic acid], the IC50 was > 10 µM.

In the case of `O=C(O)c1ccc(CN(CCc2ccc(F)cc2F)c2nc3cccc(F)c3s2)cc1` [Example 39, 4-({[2-(2,4-difluorophenyl)ethyl](7-fluorobenzo[d]thiazol-2-yl)amino}methyl)benzoic acid], the IC50 is > 10 µM.

Regarding `O=C(O)c1ccc(CN(CCc2ccccc2F)c2nc3cccc(F)c3s2)cc1` [Example 41, 4-({(7-fluorobenzo[d]thiazol-2-yl)[2-(2-fluorophenyl)ethyl]amino}methyl)benzoic acid], the IC50 is > 10 µM.

`COc1ccc(CCN(Cc2ccc(C(=O)O)cc2)c2nc3cccc(F)c3s2)c(F)c1F` [Example 43, 4-({[2-(2,3-difluoro-4-methoxyphenyl)ethyl](7-fluorobenzo[d]thiazol-2-yl)amino}methyl)benzoic acid]: the IC50 was < 1 µM.

Take `COc1cc(C)c(CCN(Cc2ccc(C(=O)O)cc2)c2nc3cccc(F)c3s2)cc1C(C)C` [Example 44, 4-{[(7-fluorobenzo[d]thiazol-2-yl){2-[4-methoxy-2-methyl-5-(propan-2-yl)phenyl]ethyl}amino]methyl}benzoic acid]: the IC50 is > 10 µM.

For the compound `COc1cc(F)c(CCN(Cc2ccc(C(=O)O)cc2)c2nc3cccc(F)c3s2)cc1F` [Example 45, 4-({[2-(2,5-difluoro-4-methoxyphenyl)ethyl](7-fluorobenzo[d]thiazol-2-yl)amino}methyl)benzoic acid], the IC50 was < 1 µM.

With `COc1ccc(CCN(Cc2ccc(C(=O)O)cc2)c2nc3cccc(F)c3s2)c(Cl)c1` [Example 46, 4-({[2-(2-chloro-4-methoxyphenyl)ethyl](7-fluorobenzo[d]thiazol-2-yl)amino}methyl)benzoic acid], the IC50 was > 10 µM.

Take `COc1ccc(CCN(Cc2ccc(C(=O)O)cc2)c2nc3cccc(F)c3s2)c(C)c1C` [Example 47, 4-({(7-fluorobenzo[d]thiazol-2-yl)[2-(4-methoxy-2,3-dimethylphenyl)ethyl]amino}methyl)benzoic acid]: the IC50 is > 10 µM.

Take `COc1cc(C)c(CCN(Cc2ccc(C(=O)O)cc2)c2nc3cccc(F)c3s2)cc1C` [Example 48, 4-({(7-fluorobenzo[d]thiazol-2-yl)[2-(4-methoxy-2,5-dimethylphenyl)ethyl]amino}methyl)benzoic acid]: the IC50 is < 1 µM.

Turning to `COc1ccc(CCN(Cc2ccc(C(=O)O)cc2)c2nc3cccc(F)c3s2)cc1C` [Example 49, 4-({(7-fluorobenzo[d]thiazol-2-yl)[2-(4-methoxy-3-methylphenyl)ethyl]amino}methyl)benzoic acid], the IC50 was < 1 µM.

Take `COc1ccc(CCN(Cc2ccc(C(=O)O)cc2)c2nc3cccc(F)c3s2)c(C)c1` [Example 50, 4-({(7-fluorobenzo[d]thiazol-2-yl)[2-(4-methoxy-2-methylphenyl)ethyl]amino}methyl)benzoic acid]: the IC50 is < 1 µM.

Take `COc1cc(F)c(CCN(Cc2ccc(C(=O)O)cc2)c2nc3cccc(F)c3s2)c(F)c1` [Example 51, 4-({[2-(2,6-difluoro-4-methoxyphenyl)ethyl](7-fluorobenzo[d]thiazol-2-yl)amino}methyl)benzoic acid]: the IC50 was < 1 µM.

Consider `COc1ccc(CCN(c2nc3cccc(F)c3s2)C(C)c2ccc(C(=O)O)cc2)cc1` (centres unmarked) [Example 52, 4-(1-{(7-fluorobenzo[d]thiazol-2-yl)[2-(4-methoxyphenyl)ethyl]amino}ethyl)benzoic acid], for which the IC50 was < 1 µM.

Turning to `CCC(c1ccc(C(=O)O)cc1)N(CCc1ccc(OC)cc1)c1nc2cccc(F)c2s1` (centres unmarked) [Example 53, 4-(1-{(7-fluorobenzo[d]thiazol-2-yl)[2-(4-methoxyphenyl)ethyl]amino}propyl)benzoic acid], the IC50 is < 1 µM.

Take `COc1ccc(CCN(c2nc3cccc(F)c3s2)C(C)c2ccc(C(=O)O)cc2)cc1F` (centres unmarked) [Example 54, 4-(1-{(7-fluorobenzo[d]thiazol-2-yl)[2-(3-fluoro-4-methoxyphenyl)ethyl]amino}ethyl)benzoic acid]: the IC50 is > 10 µM.

For `COc1ccc(CCN(c2nc3cccc(F)c3s2)C(C)c2ccc(C(=O)O)cc2)cc1Br` (centres unmarked) [Example 55, 4-(1-{[2-(3-bromo-4-methoxyphenyl)ethyl](7-fluorobenzo[d]thiazol-2-yl)amino}ethyl)benzoic acid], the IC50 was > 10 µM.

For the compound `CC(c1ccc(C(=O)O)cc1)N(CCc1ccc(F)cc1F)c1nc2cccc(F)c2s1` (centres unmarked) [Example 56, 4-(1-{[2-(2,4-difluorophenyl)ethyl](7-fluorobenzo[d]thiazol-2-yl)amino}ethyl)benzoic acid], the IC50 was > 10 µM.

As to `CC(c1ccc(C(=O)O)cc1)N(CCc1cccc(F)c1F)c1nc2cccc(F)c2s1` (centres unmarked) [Example 57, 4-(1-{[2-(2,3-difluorophenyl)ethyl](7-fluorobenzo[d]thiazol-2-yl)amino}ethyl)benzoic acid], the IC50 is > 10 µM.

For the compound `CC(c1ccc(C(=O)O)cc1)N(CCc1cc(F)c(F)c(F)c1)c1nc2cccc(F)c2s1` (centres unmarked) [Example 58, 4-(1-{(7-fluorobenzo[d]thiazol-2-yl)[2-(3,4,5-trifluorophenyl)ethyl]amino}ethyl)benzoic acid], the IC50 is > 10 µM.

For `CC(c1ccc(C(=O)O)cc1)N(CCc1ccc(Cl)cc1Cl)c1nc2cccc(F)c2s1` (centres unmarked) [Example 59, 4-(1-{[2-(2,4-dichlorophenyl)ethyl](7-fluorobenzo[d]thiazol-2-yl)amino}ethyl)benzoic acid], the IC50 was > 10 µM.

On to `COc1ccc(CCN(c2nc3cccc(F)c3s2)C(C)c2ccc(C(=O)O)cc2)c(F)c1F` (centres unmarked) [Example 60, 4-(1-{[2-(2,3-difluoro-4-methoxyphenyl)ethyl](7-fluorobenzo[d]thiazol-2-yl)amino}ethyl)benzoic acid], for which the IC50 is < 1 µM.

Take `COc1cc(F)c(CCN(c2nc3cccc(F)c3s2)C(C)c2ccc(C(=O)O)cc2)cc1F` (centres unmarked) [Example 61, 4-(1-{[2-(2,5-difluoro-4-methoxyphenyl)ethyl](7-fluorobenzo[d]thiazol-2-yl)amino}ethyl)benzoic acid]: the IC50 is < 1 µM.

For the compound `COc1cc(C)c(CCN(c2nc3cccc(F)c3s2)C(C)c2ccc(C(=O)O)cc2)cc1C(C)C` (centres unmarked) [Example 62, 4-{1-[(7-fluorobenzo[d]thiazol-2-yl){2-[4-methoxy-2-methyl-5-(propan-2-yl)phenyl]ethyl}amino]ethyl}benzoic acid], the IC50 is > 10 µM.

As to `COc1ccc(CCN(c2nc3cccc(F)c3s2)C(C)c2ccc(C(=O)O)cc2)c(C)c1C` (centres unmarked) [Example 63, 4-(1-{(7-fluorobenzo[d]thiazol-2-yl)[2-(4-methoxy-2,3-dimethylphenyl)ethyl]amino}ethyl)benzoic acid], the IC50 was < 1 µM.

For the compound `COc1cc(C)c(CCN(c2nc3cccc(F)c3s2)C(C)c2ccc(C(=O)O)cc2)cc1C` (centres unmarked) [Example 64, 4-(1-{(7-fluorobenzo[d]thiazol-2-yl)[2-(4-methoxy-2,5-dimethylphenyl)ethyl]amino}ethyl)benzoic acid], the IC50 was < 1 µM.

As for `COc1ccc(CCN(c2nc3cccc(F)c3s2)C(C)c2ccc(C(=O)O)cc2)cc1C` (centres unmarked) [Example 65, 4-(1-{(7-fluorobenzo[d]thiazol-2-yl)[2-(4-methoxy-3-methylphenyl)ethyl]amino}ethyl)benzoic acid], the IC50 is < 1 µM.

Turning to `COc1ccc(CCN(c2nc3cccc(F)c3s2)C(C)c2ccc(C(=O)O)cc2)c(C)c1` (centres unmarked) [Example 66, 4-(1-{(7-fluorobenzo[d]thiazol-2-yl)[2-(4-methoxy-2-methylphenyl)ethyl]amino}ethyl)benzoic acid], the IC50 is < 1 µM.

In the case of `COc1cc(F)c(CCN(c2nc3cccc(F)c3s2)C(C)c2ccc(C(=O)O)cc2)c(F)c1` (centres unmarked) [Example 67, 4-(1-{[2-(2,6-difluoro-4-methoxyphenyl)ethyl](7-fluorobenzo[d]thiazol-2-yl)amino}ethyl)benzoic acid], the IC50 is < 1 µM.

The same experiment, now with this note: laminin 10 μg/mL in lower well, test compounds 0.39˜100 μM, 6 hours, migrated cells counted, read-out: Inhibitory activity against cell migration.
For `COc1cccc(CCN(Cc2ccc(C(=O)O)cc2)c2nc3cccc(F)c3s2)c1` [Example 42, 4-({(7-fluorobenzo[d]thiazol-2-yl)[2-(3-methoxyphenyl)ethyl]amino}methyl)benzoic acid], the IC50 is > 10 µM.
